Publication PMC12408707, “Daunorubicin and its hydroxy metabolite in cardiomyocytes: insights into cellular kinetics, toxicity, DNA damage, and dexrazoxane-induced cardioprotection” (Archives of Toxicology, 2025)

Biological target: T1, topoisomerase IIβ (TOP2B) (Homo sapiens, UniProt Q02880)
T1 construct: recombinant human TOP2B enzyme (Inspiralis)
Experiment: kDNA decatenation assay with recombinant human TOP2B, agarose gel
Format: biochemical

T1 sequence (Q02880 2-1626): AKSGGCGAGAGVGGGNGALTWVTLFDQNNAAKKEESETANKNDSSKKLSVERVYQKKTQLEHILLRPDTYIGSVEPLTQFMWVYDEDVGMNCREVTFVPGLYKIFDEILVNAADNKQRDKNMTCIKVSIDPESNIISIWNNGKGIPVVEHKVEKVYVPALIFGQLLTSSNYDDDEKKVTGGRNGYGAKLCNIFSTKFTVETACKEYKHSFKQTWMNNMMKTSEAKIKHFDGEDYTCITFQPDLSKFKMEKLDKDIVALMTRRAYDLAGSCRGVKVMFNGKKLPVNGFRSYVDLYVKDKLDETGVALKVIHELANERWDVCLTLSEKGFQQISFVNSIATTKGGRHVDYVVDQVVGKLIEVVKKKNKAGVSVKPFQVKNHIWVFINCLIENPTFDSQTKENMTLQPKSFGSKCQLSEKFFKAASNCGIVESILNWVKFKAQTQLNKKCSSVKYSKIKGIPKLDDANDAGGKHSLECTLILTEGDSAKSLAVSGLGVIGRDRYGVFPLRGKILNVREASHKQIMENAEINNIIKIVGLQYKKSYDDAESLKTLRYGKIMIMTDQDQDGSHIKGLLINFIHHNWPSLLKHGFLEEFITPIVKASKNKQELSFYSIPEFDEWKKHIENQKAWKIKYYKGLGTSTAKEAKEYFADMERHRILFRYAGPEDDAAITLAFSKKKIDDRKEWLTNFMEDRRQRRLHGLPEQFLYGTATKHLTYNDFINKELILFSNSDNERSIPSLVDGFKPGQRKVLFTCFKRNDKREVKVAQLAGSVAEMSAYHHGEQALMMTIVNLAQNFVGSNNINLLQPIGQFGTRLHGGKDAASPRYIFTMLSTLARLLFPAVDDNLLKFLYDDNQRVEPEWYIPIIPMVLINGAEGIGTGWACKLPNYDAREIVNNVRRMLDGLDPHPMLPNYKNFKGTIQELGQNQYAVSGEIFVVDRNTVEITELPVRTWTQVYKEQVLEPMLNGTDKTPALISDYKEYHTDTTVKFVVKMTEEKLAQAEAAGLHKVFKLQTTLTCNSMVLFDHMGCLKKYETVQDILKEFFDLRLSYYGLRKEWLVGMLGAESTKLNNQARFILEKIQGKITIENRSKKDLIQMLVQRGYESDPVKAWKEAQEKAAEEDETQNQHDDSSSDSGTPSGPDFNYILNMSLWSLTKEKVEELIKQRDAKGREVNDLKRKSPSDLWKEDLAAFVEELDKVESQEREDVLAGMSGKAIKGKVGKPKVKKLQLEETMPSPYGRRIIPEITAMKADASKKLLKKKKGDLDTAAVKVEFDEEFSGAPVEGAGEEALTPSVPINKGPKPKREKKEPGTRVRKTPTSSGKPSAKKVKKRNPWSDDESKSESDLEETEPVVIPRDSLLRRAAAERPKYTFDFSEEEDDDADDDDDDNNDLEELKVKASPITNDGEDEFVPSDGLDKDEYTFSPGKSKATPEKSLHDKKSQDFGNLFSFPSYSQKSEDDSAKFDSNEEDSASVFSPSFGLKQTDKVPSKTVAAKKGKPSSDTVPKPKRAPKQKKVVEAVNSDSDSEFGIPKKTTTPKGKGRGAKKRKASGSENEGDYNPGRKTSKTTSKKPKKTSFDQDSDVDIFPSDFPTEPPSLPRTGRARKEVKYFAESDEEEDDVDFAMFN

| Structure (SMILES) | IC50 [µM] |
| --- | --- |
| COc1cccc2c1C(=O)c1c(O)c3c(c(O)c1C2=O)C[C@@](O)(C(C)=O)C[C@@H]3O[C@H]1C[C@H](N)[C@H](O)[C@H](C)O1 [DAU, daunorubicin] | 4 ± 1 |
| COc1cccc2c1C(=O)c1c(O)c3c(c(O)c1C2=O)C[C@@](O)(C(C)O)C[C@@H]3O[C@H]1C[C@H](N)[C@H](O)[C@H](C)O1 (some centres unmarked) [DAU-ol, daunorubicinol] | 17 ± 4 |
